Data from patent publication US20150210729A1, “MACROLIDE DERIVATIVES, PREPARATION THEREOF AND THERAPEUTIC USE THEREOF” (priority 2012, published 2015).
Values after ≈ are worked out from the molar mass of the structure shown. Where two headings read alike, the source gives them in different places.

Experiments:
Streptococcus pneumoniae = experiment: ATP bioluminescence test, inhibition of bacterial growth of Streptococcus pneumoniae (IC80); format: cell-based; details: read-out: IC80 (μM) S. pneumoniae
Experimental: Measurement of the Inhibitory Activity (IC80) of the Compounds According to the Invention Towards Streptococcus pneumoniae
The test used is a bioluminescence test, the aim of which is to measure the inhibition of bacterial growth of Streptococcus pneumoniae by quantification of the amount of adenosine triphosphate (ATP). Specifically, ATP is a major and mandatory energy intermediate of very many reactions of cell metabolism which characterizes live media.
ATP quantification is performed at the end of the test by using an enzyme, luciferase, which, in the presence of ATP and of a specific substrate, luciferin, produces quantifiable light.
Thus, in the presence of luciferin and luciferase at […] concentrations, the value obtained in relative light units (RLU) will make it possible, by means of a calibration, to estimate the amount of ATP and thus deduce the number of live bacteria at the end of the incubation period.
Thus, the more the RLU value obtained at the end of the test tends towards zero, the more the product inhibits the total growth of bacteria.
The results (Table 3) are expressed in IC80.

[1] = tested on: Mycobacterium tuberculosis H37Rv; experiment: Alamar blue (MABA) test, MIC on Mycobacterium tuberculosis H37Rv; format: cell-based; details: minimum inhibitory concentration, Alamar blue, strain H37Rv, read-out: MIC (μM) MTb H37Rv
[2] = 80% inhibition of bacterial growth, ATP/luciferase readout

Compound | IC80 (Streptococcus pneumoniae; [2]) | MIC [1] | IC80 (Streptococcus pneumoniae)
CON=C1C[C@@H](C)O[C@@H](O[C@@H]2[C@@H](C)[C@H](O[C@H]3C[C@@H](C)NC[C@H](C)O3)[C@@H](C)C(=O)O[C@H](C(C)CO[C@@H]3O[C@H](C)[C@@H](O)[C@@H](OC)[C@H]3OC)[C@H](C)[C@@H](OC(=O)CC(C)C)[C@@H](C)C(=O)[C@@](C)(OC(=O)NCc3ccccc3)C[C@@H]2C)[C@@H]1O (single isomer, unassigned) [Compound 8-a] | 1.84 µM | 0.56 µM (≈ 0.621 µg/mL) | –
CON=C1C[C@@H](C)O[C@@H](O[C@@H]2[C@@H](C)[C@H](O[C@H]3C[C@H](C)N(C)C[C@H](C)O3)[C@@H](C)C(=O)O[C@H](C(C)CO[C@@H]3O[C@H](C)[C@@H](O)[C@@H](OC)[C@H]3OC)[C@H](C)[C@@H](OC(=O)CC(C)C)[C@@H](C)C(=O)[C@@](C)(OC(=O)NCCc3ccncc3)C[C@@H]2C)[C@@H]1O (stereo partly drawn) [Compound 2, (2R,3S,4R,5R,7S,9S,10S,11R,12S,13R)-2-(1-{[(2R,3R,4R,5R,6R)-5-hydroxy-3,4-dimethoxy-6-methyltetrahydro-2H-pyran-2-yl]oxy}propan-2-yl)-10-{[(2S,3R,6R)-3-hydroxy-4-(methoxyimino)-6-methyltetrahydro-2H-pyran-2-yl]oxy}-3,5,7,9,11,13-hexamethyl-6,14-dioxo-7-({[2-(pyridin-4-yl)ethyl]carbamoyl}oxy)-12-{[(2S,5S,7R)-2,4,5-trimethyl-1,4-oxazepan-7-yl]oxy}oxacyclotetradecan-4-yl 3-methylbutanoate] | 0.28 µM | 1.25 µM (≈ 1.42 µg/mL) | –
CON=C1C[C@@H](C)O[C@@H](O[C@@H]2[C@@H](C)[C@H](O[C@H]3C[C@H](C)N(C)C[C@H](C)O3)[C@@H](C)C(=O)O[C@H]([C@@H](C)CO[C@@H]3O[C@H](C)[C@@H](O)[C@@H](OC)[C@H]3OC)[C@H](C)[C@@H](OC(=O)CC(C)C)[C@@H](C)C(=O)[C@@](C)(OC(=O)NC(C)(C)CNC(=O)c3cnc(O)cn3)C[C@@H]2C)[C@@H]1O [Compound 14] | 2.27 µM | 0.67 µM (≈ 0.821 µg/mL) | –
CON=C1C[C@@H](C)O[C@@H](O[C@@H]2[C@@H](C)[C@H](O[C@H]3C[C@H](C)N(CCc4ccncc4)C[C@H](C)O3)[C@@H](C)C(=O)OC([C@@H](C)CO[C@@H]3O[C@H](C)[C@@H](O)[C@@H](OC)[C@H]3OC)[C@H](C)[C@@H](OC(=O)CC(C)C)[C@@H](C)C(=O)[C@@](C)(OC(=O)NCc3ccccc3)C[C@@H]2C)[C@@H]1O (stereo partly drawn) [Compound 24] | 0.88 µM | 0.48 µM (≈ 0.582 µg/mL) | –
CON=C1C[C@@H](C)O[C@@H](O[C@@H]2[C@@H](C)[C@H](O[C@H]3C[C@@H](C)N(C)C[C@H](C)O3)[C@@H](C)C(=O)OC([C@@H](C)CO[C@@H]3O[C@H](C)[C@@H](O)[C@@H](OC)[C@H]3OC)[C@H](C)[C@@H](OC(=O)CC(C)C)[C@@H](C)C(=O)[C@@](C)(OC(=O)NCCNc3ccnc4cc(Cl)ccc34)C[C@@H]2C)[C@@H]1O (stereo partly drawn) [Compound 26] | 0.69 µM | 0.78 µM (≈ 0.965 µg/mL) | –
CON=C1C[C@@H](C)O[C@@H](O[C@@H]2[C@@H](C)[C@H](O[C@H]3C[C@H](C)N(Cc4ccccc4)C[C@H](C)O3)[C@@H](C)C(=O)OC([C@@H](C)CO[C@@H]3O[C@H](C)[C@@H](O)[C@@H](OC)[C@H]3OC)[C@H](C)[C@@H](OC(=O)CC(C)C)[C@@H](C)C(=O)[C@@](C)(OC(=O)NCCNC(=O)c3cnc(O)cn3)C[C@@H]2C)[C@@H]1O (stereo partly drawn) [Compound 33] | 1.34 µM | 0.35 µM (≈ 0.446 µg/mL) | –
CON=C1C[C@@H](C)O[C@@H](O[C@@H]2[C@@H](C)[C@H](O[C@H]3CC(C)N(C4CC4)C[C@H](C)O3)[C@@H](C)C(=O)OC([C@@H](C)CO[C@@H]3O[C@H](C)[C@@H](O)[C@@H](OC)[C@H]3OC)[C@H](C)[C@@H](OC(=O)CC(C)C)[C@@H](C)C(=O)[C@@](C)(OC(=O)NCc3ccccc3)C[C@@H]2C)[C@@H]1O (stereo partly drawn) [Compound 35] | 1.81 µM | 0.36 µM (≈ 0.413 µg/mL) | –
CN[C@H](CC(C)C)C(=O)N[C@H]1C(=O)N[C@@H](CC(N)=O)C(=O)N[C@H]2C(=O)N[C@H]3C(=O)N[C@H](C(=O)N[C@H](C(=O)O)c4cc(O)cc(O)c4-c4cc3ccc4O)[C@H](O)c3ccc(c(Cl)c3)Oc3cc2cc(c3O[C@@H]2O[C@H](CO)[C@@H](O)[C@H](O)[C@H]2O[C@H]2C[C@](C)(N)[C@H](O)[C@H](C)O2)Oc2ccc(cc2Cl)[C@H]1O [vancomycin, reference compound] | – | – | 0.14 µM
